Experimental data as given in PubChem BioAssay AID248 (DTP/NCI, 2004).
Inconclusive results and toxic doses are left out. No stated cut-off is given here; in the data, active means T/C of 150% or more; inactive means T/C below 125%.

Test system: L1210 leukemia ip in BDF1 mice, survival T/C
Experiment: NCI In Vivo Anticancer Drug Screen. Data for tumor model L1210 Leukemia (intraperitoneal) in B6D2F1 (BDF1) mice
Conditions: endpoint: mean survival time, higher = longer survival
How it was run: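 Survival endpoint. Drug-treated group vs vehicle group, expressed as T divided by C. Tumor passaged by transplantation.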

[1] = dose: 100.0 mg/kg/injection, schedule: Q04DX003 (ip), vehicle: saline
[2] = dose: 200.0 mg/kg/injection, schedule: Q04DX003 (ip), vehicle: saline
[3] = dose: 100.0 mg/kg/injection, schedule: Q04DX003 (ip), vehicle: saline with Tween-80
[4] = dose: 200.0 mg/kg/injection, schedule: Q04DX003 (ip), vehicle: saline with Tween-80
[5] = dose: 400.0 mg/kg/injection, schedule: Q04DX003 (ip), vehicle: saline with Tween-80
[6] = dose: 50.0 mg/kg/injection, schedule: Q01DX009 (ip), vehicle: saline
[7] = dose: 100.0 mg/kg/injection, schedule: Q01DX009 (ip), vehicle: saline
[8] = dose: 200.0 mg/kg/injection, schedule: Q01DX009 (ip), vehicle: saline
[9] = dose: 100.0 mg/kg/injection, schedule: Q04DX003 (ip), vehicle: Klucel (hydroxypropylcellulose) (HPC)
[10] = dose: 200.0 mg/kg/injection, schedule: Q04DX003 (ip), vehicle: Klucel (hydroxypropylcellulose) (HPC)
[11] = dose: 400.0 mg/kg/injection, schedule: Q04DX003 (ip), vehicle: Klucel (hydroxypropylcellulose) (HPC)
[12] = dose: 100.0 mg/kg/injection, schedule: Q01DX001 (ip), vehicle: saline
[13] = dose: 200.0 mg/kg/injection, schedule: Q01DX001 (ip), vehicle: saline
[14] = dose: 400.0 mg/kg/injection, schedule: Q01DX001 (ip), vehicle: saline
[15] = dose: 75.0 mg/kg/injection, schedule: Q01DX001 (ip), vehicle: saline
[16] = dose: 150.0 mg/kg/injection, schedule: Q01DX001 (ip), vehicle: saline
[17] = dose: 300.0 mg/kg/injection, schedule: Q01DX001 (ip), vehicle: saline
[18] = dose: 100.0 mg/kg/injection, schedule: Q01DX009 (ip), vehicle: saline sonified
[19] = dose: 200.0 mg/kg/injection, schedule: Q01DX009 (ip), vehicle: saline sonified
[20] = dose: 100.0 mg/kg/injection, schedule: Q01DX001 (ip), vehicle: carboxymethylcellulose (CMC)
[21] = dose: 200.0 mg/kg/injection, schedule: Q01DX001 (ip), vehicle: carboxymethylcellulose (CMC)
[22] = dose: 400.0 mg/kg/injection, schedule: Q01DX001 (ip), vehicle: carboxymethylcellulose (CMC)

Measured: T/C

CCOc1c(Br)cc(Br)cc1C=C(C#N)C#N
inactive: dose: 25.0 mg/kg/injection, schedule: Q01DX009 (ip), vehicle: other 102 % of control | dose: 50.0 mg/kg/injection, schedule: Q01DX009 (ip), vehicle: other 98 % of control | dose: 100.0 mg/kg/injection, schedule: Q04DX003 (ip), vehicle: other 102 % of control | dose: 200.0 mg/kg/injection, schedule: Q04DX003 (ip), vehicle: other 108 % of control

CC(C)(N)Cc1ccc(Cl)cc1
inactive: dose: 25.0 mg/kg/injection, schedule: Q04DX003 (ip), vehicle: saline 111 % of control | dose: 50.0 mg/kg/injection, schedule: Q04DX003 (ip), vehicle: saline 106 % of control | [1] 104 % of control | [2] 92 % of control

Nc1nc2nn(-c3ccccc3)nc2c(=O)[nH]1
inactive: [3] 100 % of control | [4] 93 % of control | [5] 94 % of control

C[P+]1(c2ccccc2)C2C=CC=CC1C=C2 (configuration not stated)
inactive: dose: 5.0 mg/kg/injection, schedule: Q01DX001 (ip), vehicle: carboxymethylcellulose (CMC) 100 % of control | dose: 10.0 mg/kg/injection, schedule: Q01DX001 (ip), vehicle: carboxymethylcellulose (CMC) 92 % of control | dose: 20.0 mg/kg/injection, schedule: Q01DX001 (ip), vehicle: carboxymethylcellulose (CMC) 97 % of control

N=C(N)CC(=O)CC(=N)N
inactive: [6] 91 % of control | [7] 91 % of control | [8] 98 % of control

O=C(COc1ccc(Cl)cc1C(=O)O)NCc1cccc2ccccc12
inactive: [9] 97 % of control | [10] 98 % of control | [11] 100 % of control

O=C(Cl)c1c(Cl)c(Cl)c(C(=O)Cl)c(Cl)c1Cl
inactive: dose: 25.0 mg/kg/injection, schedule: Q01DX009 (ip), vehicle: saline 90 % of control | [6] 97 % of control | [12] 98 % of control | [1] 100 % of control | [13] 98 % of control | [14] 104 % of control

NC1(C(=O)c2ccccc2)CC2CCC1C2 (configuration not stated)
inactive: [9] 101 % of control | [10] 98 % of control | [11] 103 % of control

CC(=O)OC1CCSCC1
inactive: [3] 101 % of control | [4] 93 % of control | [5] 103 % of control

CCOC(=O)Nc1cc2c(c(NC(=O)OCC)n1)N=C(C)CN2 (tested in a mixture with another compound)
inactive: dose: 100.0 mg/kg/injection, schedule: Q01DX001 (ip), vehicle: saline with Tween-80 95 % of control | dose: 200.0 mg/kg/injection, schedule: Q01DX001 (ip), vehicle: saline with Tween-80 95 % of control | dose: 200.0 mg/kg/injection, schedule: Q04DX002 (ip), vehicle: saline with Tween-80 95 % of control | dose: 400.0 mg/kg/injection, schedule: Q01DX001 (ip), vehicle: saline with Tween-80 95 % of control | dose: 400.0 mg/kg/injection, schedule: Q04DX002 (ip), vehicle: saline with Tween-80 103 % of control | dose: 600.0 mg/kg/injection, schedule: Q04DX002 (ip), vehicle: saline with Tween-80 103 % of control

Cc1cccc(N2CCN(CC(O)COc3cccc4ccccc34)CC2)c1 (configuration not stated)
inactive: [12] 95 % of control | [13] 98 % of control | [14] 95 % of control

O=C(C[n+]1ccccc1/C=N/Nc1ccccc1)c1ccccc1
inactive: [15] 95 % of control | [16] 95 % of control | [17] 97 % of control

CCCN(CCC)c1ccc(/C=C\c2ccncc2)cc1
inactive: dose: 100.0 mg/kg/injection, schedule: Q01DX001 (ip), vehicle: Klucel (hydroxypropylcellulose) (HPC) 98 % of control | dose: 200.0 mg/kg/injection, schedule: Q01DX001 (ip), vehicle: Klucel (hydroxypropylcellulose) (HPC) 103 % of control | dose: 400.0 mg/kg/injection, schedule: Q01DX001 (ip), vehicle: Klucel (hydroxypropylcellulose) (HPC) 98 % of control

O/N=C1\CCc2ccccc2C(O)C1c1ccccc1 (configuration not stated)
inactive: [3] 97 % of control | [4] 102 % of control | [5] 88 % of control

CCCCCCCCC(C(O)c1ccccc1)C(O)(C(F)(F)F)C(F)(F)F (configuration not stated)
inactive: dose: 100.0 mg/kg/injection, schedule: Q01DX009 (ip), vehicle: saline with Tween-80 95 % of control | dose: 200.0 mg/kg/injection, schedule: Q01DX009 (ip), vehicle: saline with Tween-80 105 % of control | dose: 400.0 mg/kg/injection, schedule: Q01DX009 (ip), vehicle: saline with Tween-80 97 % of control

Cc1cc(Cl)c(Cl)cc1NC(=O)/C=C\c1ccccc1
inactive: dose: 100.0 mg/kg/injection, schedule: Q01DX009 (ip), vehicle: Klucel (hydroxypropylcellulose) (HPC) 114 % of control | [9] 91 % of control | dose: 200.0 mg/kg/injection, schedule: Q01DX009 (ip), vehicle: Klucel (hydroxypropylcellulose) (HPC) 108 % of control | [10] 94 % of control | dose: 400.0 mg/kg/injection, schedule: Q01DX009 (ip), vehicle: Klucel (hydroxypropylcellulose) (HPC) 102 % of control | [11] 97 % of control

COc1ccc(C(C)=O)cc1OC
inactive: [18] 92 % of control | [19] 88 % of control | dose: 400.0 mg/kg/injection, schedule: Q01DX009 (ip), vehicle: saline sonified 100 % of control

CP(=O)(Cc1ccccc1)c1ccccc1 (configuration not stated)
inactive: [15] 101 % of control | [16] 103 % of control | [17] 103 % of control

O=C1C=CC(=O)N1c1ccnc(N2C(=O)C=CC2=O)c1
inactive: [20] 86 % of control | [21] 97 % of control | [22] 105 % of control

S=C(S)N1CCOCC1
inactive: dose: 50.0 mg/kg/injection, schedule: Q01DX009 (ip), vehicle: saline sonified 104 % of control | [12] 105 % of control | [18] 100 % of control | [7] 98 % of control | [1] 93 % of control | [13] 97 % of control | [19] 94 % of control | [8] 106 % of control | [2] 97 % of control | dose: 400.0 mg/kg/injection, schedule: Q01DX009 (ip), vehicle: saline 96 % of control | dose: 400.0 mg/kg/injection, schedule: Q04DX003 (ip), vehicle: saline 95 % of control

COc1cc2c(c(O)c1OCC=C(C)C)c(=O)c1ccccc1n2C
inactive: [20] 93 % of control | [21] 95 % of control | [22] 88 % of control

CC(=O)Nc1cc(CN2CCCCC2)c(O)c2ncccc12
inactive: dose: 75.0 mg/kg/injection, schedule: Q01DX001 (ip), vehicle: other 120 % of control | dose: 150.0 mg/kg/injection, schedule: Q01DX001 (ip), vehicle: other 105 % of control | dose: 300.0 mg/kg/injection, schedule: Q01DX001 (ip), vehicle: other 107 % of control

CCCCCCC(=O)N1CC(C)OC(C)C1 (configuration not stated)
inactive: dose: 100.0 mg/kg/injection, schedule: Q04DX002 (ip), vehicle: Klucel (hydroxypropylcellulose) (HPC) 96 % of control | dose: 200.0 mg/kg/injection, schedule: Q04DX002 (ip), vehicle: Klucel (hydroxypropylcellulose) (HPC) 96 % of control
